These results are taken from patent publication US20240350430A1, “GROWTH INHIBITOR OF METASTATIC HUMAN PROSTATE CANCER CELLS” (Watanabe Oyster Laboratory Co., Ltd., priority 2021, published 2024).

Common to all, as to type: cell-based, human
Test [1] relates to PC-3 cells. In words: Intracellular active oxygen (ROS) production, H2DCFDA, PC-3 cells. As to conditions: DHMBA 1, 10, 100, and 1000 μM, 24 hours. As to the method: The intracellular active oxygen (reactive oxygen species: ROS) was measured using an ROS measurement kit (MAK144-1 Kit, Sigma-Aldrich) using pro-fluorescent substrate H2DCFDA. The PC-3 and DU-145 cells (the cell number of 2.5×10^4/per well, in 0.1 ml of a culture fluid per hole using a 96-hole plate) were cultured in a DMEM culture fluid (containing 10% of FBS, 1% of P/S, and 1% of fungizone) containing the DHMBA (0.1, 1, 10, 100, or 1000 μM) under 5% of CO2, at 37° C., for 24 hours. After the culture, the cells were washed with PBS, 0.1 ml and 25 μM of an H2DCFDA solution was added, and incubation was performed for 45 minutes. Afterwards, the cells were washed with PBS, and as the amount of active oxygen produced in the cells, fluorescence intensity was measured using a fluorescence measurement plate reader at a wavelength Ex/Em=485/535 nm.
The PC-3 and DU-145 cells (2.5×10^4/0.1 ml of a culture fluid per hole using a 96-hole plate) were cultured under 5% of CO2, at 37° C., for 24 hours in a DMEM culture fluid (containing 10% of FBS, 1% of P/S, and 1% of fungizone) containing the DHMBA (0.1, 1, 10, 100, or 1000 μM). […] After the cells were washed with PBS, a fluorescence intensity of the cells was measured using a fluorescence measurement plate reader at a wavelength Ex/Em=485/535 nm. […]

In a further test the test system is DU-145 cells. As to the kind of experiment: Colony formation of DU-145 cells. Particulars: DHMBA 1 or 10 μM, nine days. As to the method:
(§1) The PC-3 and DU-145 cells (1×10^3/in 2 ml of a culture fluid per hole using a six-hole plate) were cultured in a DMEM culture fluid (containing 10% of FBS, 1% of P/S, and 1% of fungizone) containing the DHMBA (1 and 10 μM) under 5% of CO2, at 37° C., for nine days. After the culture, the culture fluid was removed, the cells were washed twice with PBS, 95% of methanol (0.5 ml) was added, and the cells were fixed for 20 minutes. After the fixation, each well of a culture dish was washed four times with PBS (1 ml), and after that 0.5% of crystal violet (0.5 ml) was added, and the product was left for two hours at room temperature for staining. After the stain solution was washed to be removed, drying was performed, and after that colonies containing 50 or more cells were counted by a microscope (Olympus MTV-3, Olympus Corporation, Tokyo, Japan).
FIG. 2(A) is a drawing in which the DU-145 cells (1×10^3 cells/per well of a six-well plate) were cultured under 5% of CO2, at 37° C., for nine days in a DMEM culture fluid (containing 10% of FBS, 1% of P/S, and 1% of fungizone) containing the DHMBA (1 or 10 μM).
FIG. 2(B) is a diagram of counting the number of colonies.

Test [2] deals with PC-3 cells. In words: Colony formation of PC-3 cells. Particulars: DHMBA 1 or 10 μM, nine days. As to the method: as §1
FIG. 1(A) is a drawing in which the PC-3 cells (the cell number of 1×10^3/per well of a six-well plate) were cultured under 5% of CO2, at 37° C., for nine days in a DMEM culture fluid (containing 10% of FBS, 1% of P/S, and 1% of fungizone) containing the DHMBA (1 or 10 μM).
FIG. 1(B) is a diagram of counting the number of colonies.

For `COc1c(O)cc(CO)cc1O` [DHMBA, 3,5-dihydroxy-4-methoxybenzyl alcohol], in the test on PC-3 cells [1], the “amount of intracellular active oxygen production” value is “significant inhibition”. The colony formation entry in the test with DU-145 cells and in the test with PC-3 cells [2] was “significantly inhibited” throughout.
